Assay results taken from US20260144783A1, “COMPOSITION FOR PREVENTING OR TREATING PERIPHERAL NEUROPATHY, CONTAINING ISOQUINOLINE DERIVATIVE AS ACTIVE INGREDIENT” (ALTMEDICAL CO., LTD., priority 2022, published 2026).
Where two headings read alike, the source gives them in different places.

Key:
[1] = system: BEAS-2B cell line; assay: mitophagy activity, mt-Keima fluorescent protein (FACS, confocal microscope, mito-YFP); format: cell-based, human
Experimental: To analyze the mitophagy-promoting activity effect of the CD1-012 synthesized in the Example 1, the BEAS-2B cell line, which is a human normal lung cell line, was induced to express the mt-Keima fluorescent protein. Following this, the CD1-012 (15 μM) and the compound of Comparative Example 1, CCCP (10 μM), were treated for 24 hours. After the treatment, the mitophagy activity of each sample was measured, and the results were represented in FIGS. 1A to IC.
Specifically, FIG. 1A represents the analysis results using flow cytometry (FACS) (treatment of CD1-012 at 15 µM for 24 hours), FIG. 1B represents the analysis results using a confocal microscope (treatment of CD1-012 at 15 μM for 18 hours), and FIG. 1C represents the measurement results of the quantitative changes in the mitochondria using a fluorescent protein, mito-YFP, which includes a targeting sequence to transport protein to the mitochondria (treatment of CD1-012 at 20 μM for 24 hours).
It was confirmed whether CD1-012 synthesized in Example 1 promotes mitophagy activity in a concentration- and time-dependent manner. To this end, the CD1-012 was treated at various concentrations or at a fixed concentration (15 μM) for different treatment durations in the BEAS-2B cell line expressing mt-Keima, and mitophagy activity was measured using a flow cytometer.
(§1) It was confirmed whether CD1-012 synthesized in Example 1 specifically increases only mitophagy activity. To this end, the BEAS-2B cell line expressing mt-Keima was treated with CD1-012 (15 μM) or Comparative Example 1 (CCCP, 10 μM) for 18 hours, and mitophagy activity was analyzed using a confocal microscope. Additionally, to measure autophagy activity, the BEAS-2B cell line expressing Keima fluorescent protein was incubated in Hanks' balanced salt solution (HBSS) for 3 hours to induce a starvation condition (starv.), and the results were compared with samples treated with CD1-012 (15 μM) for 18 hours using a confocal microscope.
To this end, the human normal lung cell line BEAS-2B, expressing mt-Keima fluorescent protein, was treated with CD1-012, Comparative Example 2 (palmatine), or Comparative Example 3 (berberine) at various concentrations, and the mitophagy-inducing activity of each sample was compared.

[2] = system: BEAS-2B cell line, in which PINK1 was knocked down (shPINK1); assay: mitophagy activity in PINK1 knockdown cell line (FACS); format: cell-based, human; conditions: CCCP 10 μM or CD1-012 15 μM, 18 hours
Experimental: In this example, it was confirmed whether the mitophagy activation function of the isoquinoline derivative according to the present invention is dependent on the PINK1-Parkin pathway. To this end, after a BEAS-2B cell line, in which PINK1 was knocked down using short hairpin RNA (shRNA), was treated with CCCP (10 μM) of Comparative Example 1 or CD1-012 (15 μM) for 18 hours, the mitophagy activity of each sample was analyzed using flow cytometry (FACS).

[3] = system: mitochondrial reactive oxygen species (ROS); assay: MitoSOX assay; format: cell-based; conditions: CD1-012 10 μM or 15 μM, CCCP 10 μM, 24 hours
Experimental: (§2) It was confirmed whether the isoquinoline derivative according to the present invention induces mitochondrial dysfunction, similar to CCCP. To this end, the CD1-012 (10 μM or 15 μM) and CCCP (10 μM) were treated for 24 hours, and the mitochondrial membrane potential and mitochondrial reactive oxygen species (ROS) levels in each sample were analyzed. Mitochondrial membrane potential was analyzed using the TMRM (tetramethylrhodamine methyl ester) assay, and mitochondrial ROS levels were analyzed using the MitoSOX assay.

[4] = system: mitochondrial membrane potential; assay: TMRM assay; format: cell-based; conditions: CD1-012 10 μM or 15 μM, CCCP 10 μM, 24 hours
Experimental: as §2

[5] = system: SH-SY5Y cell line; assay: mitophagy activity, mt-Keima, flow cytometry (FACS); format: cell-based, human; conditions: SH-SY5Y expressing mt-Keima
Experimental: (§3) It was confirmed whether CD1-012 synthesized in Example 1 increases mitophagy activity in various cell lines. To this end, CD1-012 and Comparative Example 1 (CCCP) were treated in the SH-SY5Y cell line, a human neuroblastoma cell line expressing mt-Keima fluorescent protein, and in the HeLa-Parkin cell line, a HeLa cervical cancer cell line expressing Parkin (E3 ligase). Following this treatment, the mitophagy activity of each sample was analyzed using flow cytometry (FACS), and the results are shown in FIGS. 2A to 2B.

[6] = system: chemotherapy-induced peripheral neuropathy mouse model; assay: nerve distribution in the footpad (IENFs), peripheral neuropathy mouse model; format: in vivo
[7] = system: HeLa-Parkin cell line; assay: mitophagy activity, flow cytometry (FACS); format: cell-based
Experimental: as §3

[8] = system: Drosophila expressing shRap9 in C4da sensory neurons; assay: heat probe assay, Rap9 suppressed; format: in vivo; conditions: Rap9 expression suppressed; paclitaxel 20 μM and CD1-012 1 mM
Experimental: (§4) Subsequently, to understand the molecular mechanism underlying the therapeutic effect of CD1-012 on chemotherapy-induced peripheral neuropathy, the therapeutic effect of CD1-012 was examined after suppressing the expression of ULK1 or Rap9, which are essential genes in the recently identified alternative mitophagy pathway. To this end, a heat probe assay was performed using a 40° C. thermal probe after co-treating paclitaxel (20 μM) and CD1-012 (1 mM) in Drosophila expressing shULK1 or shRap9 in C4da sensory neurons, as well as in control Drosophila (wild-type). As a result, in the control group, the peripheral neuropathy symptoms (reduction in withdrawal latency) induced by paclitaxel were recovered by CD1-012 treatment.

[9] = system: BEAS-2B cell line; assay: autophagy activity, Keima fluorescent protein, confocal microscope; format: cell-based, human; conditions: 15 μM 18 h, BEAS-2B expressing Keima, FIG. 4B
Experimental: as §1

[10] = system: Drosophila expressing shATG7 in C4da sensory neurons; assay: heat probe assay, ATG7 suppressed; format: in vivo; conditions: ATG7 expression suppressed; paclitaxel 20 μM and CD1-012 1 mM, 40° C. probe
Experimental: (§5) In this example, an experiment was conducted to verify the therapeutic mechanism of the compound according to the present invention on peripheral neuropathy, particularly chemotherapy-induced peripheral neuropathy. To this end, the therapeutic effect of CD1-012 on peripheral neuropathy was evaluated using animal models in which the expression of ATG5 or ATG7, essential genes in the canonical mitophagy pathway, the most representative mitophagy regulatory pathway, was suppressed. Specifically, paclitaxel (20 μM) and CD1-012 (1 mM) were co-administered to Drosophila expressing shATG7 or shATG5 in C4da sensory neurons, as well as to control flies (wild-type), and a heat probe assay was conducted using a 40° C. thermal probe.

[11] = system: chemotherapy-induced peripheral neuropathy mouse model; assay: vonfrey hair test, peripheral neuropathy mouse model; format: in vivo; conditions: mice
Experimental: To more clearly verify the therapeutic effect of the isoquinoline derivative of the present invention on peripheral neuropathy, particularly chemotherapy-induced peripheral neuropathy, experiments were conducted using a peripheral neuropathy mouse model. Specifically, peripheral neuropathy was induced in mice by administration of a chemotherapeutic agent (paclitaxel), and CD1-012 was co-administered at a dose of 10 mg/kg or 20 mg/kg. Sensitivity to pain was then analyzed using the vonfrey hair test.

[12] = system: third-instar larvae of Drosophila (w1118); format: in vivo; conditions: for withdrawal latency: heat probe 40° C.
Experimental: To this end, thermal sensitivity was measured in a Drosophila model of paclitaxel-induced peripheral neuropathy. […] As a result, after treatment with paclitaxel, hyperalgesia was observed, as indicated by a 35% reduction in withdrawal latency from 6.9 seconds to 4.5 seconds (FIG. 8A). Subsequently, to confirm the therapeutic effect of CD1-012 on peripheral neuropathy, Drosophila were treated with CD1-012 at a concentration of 1 mM along with paclitaxel (20 μM).
as §4

[13] = system: Drosophila expressing shATG5 in C4da sensory neurons; assay: heat probe assay, ATG5 suppressed; format: in vivo; conditions: ATG5 expression suppressed; paclitaxel 20 μM and CD1-012 1 mM, 40° C. probe
Experimental: as §5

[14] = system: Drosophila expressing shULK1 in C4da sensory neurons; assay: heat probe assay, ULK1 suppressed; format: in vivo; conditions: ULK1 expression suppressed; paclitaxel 20 μM and CD1-012 1 mM
Experimental: as §4

[15] = system: C4da sensory neurons (ppk1a>CD4-tdTom Drosophila); assay: morphology of dendritic branches of C4da sensory neurons; format: in vivo
From the text: To analyze the morphological changes in the dendritic branches of C4da sensory neurons, transgenic Drosophila expressing the fluorescent protein CD4-tdTomato specifically in C4da neurons (ppk^1a>CD4-tdTom) was generated. After treatment of the transgenic flies with paclitaxel and CD1-012, morphological changes in the dendritic branches of C4da sensory neurons were examined. As a result, treatment with paclitaxel increased the total dendrite length and the number of dendritic branches by 22% and 33%, respectively, confirming that morphological changes in the sensory neurons were induced.

[16] = system: Drosophila larvae; assay: larval size after treatment; format: in vivo
Experimental: In addition, to evaluate whether the compound according to the present invention affects the growth of Drosophila, the size of larvae was measured after treatment with paclitaxel and CD1-012.

[17] = CD1-012 co-administered with paclitaxel
[18] = 15 μM, BEAS-2B mt-Keima, FIG. 3B
[19] = paclitaxel treatment, C4da sensory neurons

## COc1ccc2cc3[n+](cc2c1OC)CCc1cc2c(cc1-3)OCO2 [berberine, Berberine, reference compound]
[1]; BEAS-2B mt-Keima, FIG. 5
  concentration at which mitophagy activity reached its maximum (comparable level): 80 µM

## COc1cc2c(cc1OC)-c1cc3ccc(OC)c(OC)c3c[n+]1CC2 [palmatine, Palmatine, reference compound]
[1]; BEAS-2B mt-Keima, FIG. 5
  concentration at which mitophagy activity reached its maximum (comparable level): 400 µM

## N#CC(C#N)=NNc1cccc(Cl)c1 [CCCP, Carbonyl cyanide 3-chlorophenylhydrazone, reference compound]
[2]
  mitophagy activation in PINK1 knockdown cell line (shPINK1) compared to control: significantly decreased
[3]
  mitochondrial ROS levels: significantly increased
[4]
  mitochondrial membrane potential: significantly reduced

## Oc1cc2c(cc1O)-c1cc3ccc(O)c(O)c3c[n+]1CC2 [CD1-012, 2,3,9,10-tetrahydroxy-5,6-dihydroisoquinolino[3,2-a]isoquinolin-7-ium bromide]
[5]
  mitophagy activity compared to the control group (Con): significantly increased
[6]; mice treated with CD1-012 and paclitaxel, FIG. 12B
  number of peripheral nerves (intraepidermal nerve fibers: IENFs) in the footpad: recovery to normal levels
[7]
  mitophagy activity compared to the control group (Con): significantly increased
[2]
  mitophagy activation in PINK1 knockdown cell line (shPINK1) compared to control: did not show a significant difference
[3]
  mitochondrial ROS levels: no increase
[8]
  therapeutic effect on paclitaxel-induced peripheral neuropathy (withdrawal latency): completely abolished
[9]
  autophagy activity compared to the untreated control group: no significant difference
[10]
  therapeutic effect on chemotherapy-induced peripheral neuropathy (withdrawal latency): similarly observed
[11]; CD1-012 10 mg/kg or 20 mg/kg co-administered with paclitaxel, FIG. 12A
  hyperalgesic symptoms (sensitivity to pain): significant improvement
[12]; CD1-012 1 mM along with paclitaxel 20 μM
  withdrawal latency as percent of the wild-type level: 91%
[12]; CD1-012 1 mM along with paclitaxel 20 μM, paclitaxel alone 4.5 seconds
  withdrawal latency: 6.3 s
[12]; control Drosophila (wild-type), paclitaxel 20 μM and CD1-012 1 mM, 40° C. probe
  peripheral neuropathy symptoms (reduction in withdrawal latency) induced by paclitaxel: recovered
[4]
  mitochondrial membrane potential: no decrease
[13]
  therapeutic effect on chemotherapy-induced peripheral neuropathy (withdrawal latency): similarly observed
[14]
  therapeutic effect on paclitaxel-induced peripheral neuropathy (withdrawal latency): completely abolished
[15]; [17]
  paclitaxel-induced increase in dendrite length: significantly suppressed
  paclitaxel-induced increase in number of branches: significantly suppressed
[16]; in vivo
  reduction in larval size compared to the untreated control group: ~10%
[1]; 15 μM 24 h, CCCP 10 μM
  mitophagy activity compared with CCCP-treated sample (FIG. 1A, FACS): increased as significantly as
[1]; [18]
  treatment time after which mitophagy activity began to significantly increase: 3 h
  treatment time at which mitophagy activity reached its maximum level: 18 h
[1]; BEAS-2B mt-Keima, FIG. 5
  concentration at which mitophagy activity reached its maximum (comparable level): 10 µM
  mitophagy-inducing activity relative to berberine: approximately 8 times
  mitophagy-inducing activity relative to palmatine: approximately 40 times
[1]; BEAS-2B mt-Keima, flow cytometer, FIG. 3A
  concentration at which mitophagy activity began to significantly increase compared to untreated control: ≥ 7.5 µM
[1]; BEAS-2B mt-Keima, CD1-012 15 μM 24 h FACS, 15 μM 18 h confocal, 20 μM 24 h mito-YFP
  mitophagy activity compared to the untreated control group (Con): significant increase
[1]; up to the maximum treatment concentration of 17.5 μM, FIG. 3A
  mitophagy activity, concentration dependence: continued to increase in a concentration-dependent manner

## CC(=O)O[C@H]1C(=O)[C@@]2(C)[C@H]([C@H](OC(=O)c3ccccc3)[C@]3(O)C[C@H](OC(=O)[C@H](O)[C@@H](NC(=O)c4ccccc4)c4ccccc4)C(C)=C1C3(C)C)[C@]1(OC(C)=O)CO[C@@H]1C[C@@H]2O [paclitaxel, reference compound]
[6]; mice, paclitaxel alone
  number of peripheral nerves (intraepidermal nerve fibers: IENFs) in the footpad: reduced
[11]; paclitaxel alone
  pain sensitivity: increased
[12]; paclitaxel 20 μM 48 hours alone, from 6.9 seconds to 4.5 seconds
  reduction in withdrawal latency: 35%
[12]; paclitaxel 20 μM 48 hours alone, untreated 6.9 seconds
  withdrawal latency: 4.5 s
[15]; [19]
  increase in number of dendritic branches: 33%
  increase in total dendrite length: 22%
[16]; Drosophila larvae, FIG. 8B
  reduction in larval size compared to the untreated control group: ~28%
